# From paper PMC5760527, “Connexin 43 Hemichannel as a Novel Mediator of Sterile and Infectious Inflammatory Diseases” (Scientific Reports, 2018)
# Assays:
# [1] = tested on: macrophage Cx43 hemichannel activities, RAW 264.7 cells; test: Lucifer Yellow dye uptake, hemichannel permeability, calcium-depleted; assay type: cell-based, murine; details: P5 20 μM, LPS 0.5 μg/ml, 16 h, LY 15 min, P < 0.05 versus +LPS
# Text: Because connexon is the structural unit for both hemichannel (1 connexon) and gap junction (2 connexons from opposing cells), which are both permeable to similar molecular weight molecules, such as the Lucifer yellow (LY). Thus, the LY dye uptake could be used to determine the channel permeability of both hemichannel (as indicated by the rate of LY entry into the cells) and gap junction channels (as judged by the distance of intercellular LY diffusion). The LY dye uptake assay relied on the ability of this dye present in the extracellular milieu to cross the plasma membrane and became concentrated inside of the cell, which could be quantified by fluorescence microscopy. To determine the effects of Cx43 mimetic peptides on hemichannel permeability, RAW 264.7 cells were subjected to LPS stimulation (0.5 µg/ml, 16 h) before replacing the medium with fresh DMEM containing various Cx43 mimetic peptides, GAP26 (100 µM), TAT-GAP19 (200 µM) or P5 (20 µM). Following a brief incubation (15 min), EGTA (1 mM) was added to deplete free calcium prior to the addition of LY dye (1%). Fifteen min later, cells were fixed with 2% paraformaldehyde, and the number of LY-positive cells was counted. The ratio of LY-positive cells vs. total cell counts (DAPI staining) was used as the measurement of hemichannel permeability.
# [2] = tested on: Cx43 gap junctions, NIH 3T3 fibroblasts; test: Cx43 gap junction formation, immunostaining; assay type: cell-based; details: P5 20 µM, overnight
# Experimental: Primary peritoneal macrophages were isolated from Balb/c mice, stimulated with LPS or SAA for 6 h, and immunostained with an affinity-purified rabbit anti-Cx43 IgGs (1:1,000 dilution at 4 °C) as previously described. Non-immune NIH 3T3 cells were grown on glass coverslips to confluency to allow formation of gap junctional channels. The growth medium was changed to DMEM before an overnight incubation with P5 (20 µM). Cells were then fixed with 2% paraformaldehyde, incubated for 16 hr with a well-characterized affinity-purified rabbit anti-Cx43 IgGs as previously described. After extensive washing, cells were incubated with donkey anti-rabbit Alexa 488 (Invitrogen) for 1 hr at room temperature. The coverslips were subsequently mounted on glass slides using anti-fade medium and examined using an epi-fluorescence microscope.
# [3] = tested on: gap junctional intercellular communication, NIH 3T3 fibroblasts; test: Scrape-loading assay of GJ intercellular communication; assay type: cell-based; details: LY (444 Da) and rhodamine dextran (10,000 Da), overnight or 20 min incubation, 2 min diffusion
# Experimental: We used NIH 3T3 fibroblasts to investigate the effects of Cx43 mimetic peptides on GJ permeability employing a technique termed scrape-loading. After overnight or 20 min incubation with or without Cx43 mimetic peptides in DMEM, EGTA was added to DMEM to deplete free calcium. Immediately afterwards, 1% LY and 1% rhodamine dextran was added into PBS, followed by scraping the cell monolayer with a pipette tip loading tracers into cytoplasmic compartment of scraped cells. Tracers were allowed to diffuse to adjacent cells for 2 min before immobilized by PF fixation for 10 minutes. Cells were subsequently extensively washed in PBS three times and coversliped to allow examination of LY diffusion.
# [4] = tested on: HMGB1 release, RAW 264.7 cells; test: HMGB1 release, Western blotting; assay type: cell-based, murine; details: LPS 0.5 µg/ml, 16 h, P < 0.05 versus +LPS
# [5] = tested on: LPS-induced Cx43 upregulation, macrophages; test: LPS-induced Cx43 upregulation in presence of P5; assay type: cell-based; details: macrophage cultures; data not shown
# Experimental: The cellular levels of Cx43 and phosphor-PKR were determined by Western blotting analysis using an affinity-purified rabbit anti-Cx43 or anti-phospho-PKR (Thr^451) IgGs as previously described[9],[25],[53]. The levels of HMGB1 in the culture medium were determined by Western blotting analysis as described previously. The level of β-actin was used as a reference of total cellular proteins. Briefly, an equal volume of culture medium (conditioned by identical macrophage cell numbers) was harvested, and protein content was concentrated by ultrafiltration (with a molecular weight cutoff of 10.0 kDa), and then normalized to the same volume with a sample buffer. Proteins in equal sample volume were resolved on sodium dodecyl sulfate (SDS)-polyacrylamide gels, and transferred to polyvinylidene difluoride (PVDF) membranes. After blocking with 5% nonfat milk, the membrane was incubated with respective antibodies (anti-Cx43, 1:1000; anti-phospho-PKR, 1:1000; anti-HMGB1, 1:1,000; anti-β-actin. 1:5,000) overnight. Subsequently, the membrane was incubated with the appropriate secondary antibody, and the immunoreactive bands were visualized by chemiluminescence techniques.
# Cx43 EL1 peptide = target: T1, Cx43 EL1 peptide (Homo sapiens, UniProt P17302); test: Surface Plasmon Resonance, Cx43 EL1 peptide; assay type: binding; details: synthetic full-length EL1 peptide, data not shown
# T1 construct: synthetic full-length Cx43 EL1 or EL2 peptide as judged by the Surface Plasmon Resonance Analysis
# T1 sequence (P17302 45-76 limits assumed): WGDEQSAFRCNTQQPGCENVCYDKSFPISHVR
substance,measurement,setting,value
"ENVCYD [P5, cysteine-containing Cx43 EL1 mimetic hexamer peptide, P5 (ENVCYD)]",effect on endotoxin-induced hemichannel activities (LY dye uptake),[1],significantly inhibited the endotoxin-induced elevation of hemichannel activities
same,GJ formation (Cx43 punctate immunostaining),[2],did not alter the punctate immunostaining profile of Cx43
same,gap junctional transfer of LY / RD immobility,[3],no obvious difference in the LY diffusion or RD immobility patterns
same,inhibition of LPS-induced HMGB1 release,[4],significantly inhibited by P5 in a dose-dependent fashion
same,LPS-induced Cx43 upregulation,[5],did not affect the LPS-induced Cx43 upregulation
same,binding to Cx43 EL1 peptide,Cx43 EL1 peptide,did not find evidence of P5 interacting
